Measured values reported in US10563197B2, “Use of a combination of Dbait molecule and PARP inhibitors to treat cancer” (INSTITUT CURIE, priority 2015, dated 2020).

Experiments:
Format in all cases: cell-based, human
MDAMB231 = experiment: Cell survival, trypan blue counting; settings: for efficacy of the combination of PARPi with AsiDNA versus calculated additivity: 4.8 μM or 16 μM AsiDNA, PARPi doses giving 80% and 50% survival, 6 days; for IC20 / IC50: Homo sapiens, MDA-MB-231, MDAMB231; for IC20: PARPi dose giving 80% survival; for IC50: PARPi dose resulting in 50% survival
Experimental: Cells were grown according to the supplier's instructions.

[1] = tested on: Breast cancer cell lines MDAMB231; experiment: Cell survival with DT01 and PARP inhibitors (Example 1, FIG. 1); settings: DT01 100 or 333 μg/ml plus Olaparib 0.1, 1 μM or Veliparib 1, 10, 50 μM; 6 days
Experimental: Breast cancer cell lines MDAMB231 were treated with 100 μg/ml (Black, Squares) or 333 μg/ml (Grey, Crosses) of DT01 or no DT01 (Black, Diamond) and exposed to either 0, 0.1 and 1 μM of Olaparib (upper panel) or 1, 10 and 50 μM Veliparib (lower panel). Survival was measured 6 days after treatment using trypan blue to detect living cells. The data are presented as % of the non-treated control.
The human cell lines were grown in complete RPMI (Gibco, Cergy Pontoise, France) supplemented with 10% fetal bovine serum (ATGC, Orléans, France), 1% sodium pyruvate, streptomycin ([…]) and penicillin ([…]) (Invitrogen, Carlsbad, Calif., USA). Cells were maintained at 37° C. under a 5% CO2 atmosphere, at 100% humidity. Treatments were performed by adding nucleotides (DT01 and others) or/and PARP inhibitors at time zero in medium without serum. The medium was changed with fresh medium containing fetal bovine serum 24 hours after beginning of treatment. Cells were let to grow for 4 additional days (5 days after treatment), treated with trypsin and counted for total number of cells. Trypan blue (0.4%) was added for counting the living cells (uncolored) in the population.

2 non-tumor cell lines = experiment: Combined treatment survival in non-tumor cell lines (FIG. 6, 12); settings: AsiDNA 4.8 μM with veliparib 10 and 50 μM; 6 days
Experimental: (§1) Efficacy of AsiDNA (4. 8 μM), olaparib (0, 0.1 and 1 μM) or both was monitored 6 days after treatment by cell counting after trypan blue labeling. (A) Percentage of living cells relative to non-treated condition (NT). (B) Percentage of dead cells. Data are expressed as mean+Sc.D. of at least 2 independent experiments. Dotted lines indicate the calculated cell survivals if additivity between AsiDNA and olaparib.
(A) Percentage of living cells relative to non-treated condition (NT). (B) Percentage of dead cells. Dotted lines indicate the calculated cell survivals if additivity between AsiDNA and veliparib.
The inventors monitored cell survival to combined treatment of 3 BC and 2 non-tumor cell lines with different sensitivities to Ola and AsiDNA alone (FIG. 6; Table 1).

3 BC cell lines = experiment: Combined treatment survival in BC cell lines (FIG. 6, 7, 12); settings: AsiDNA 4.8 μM with veliparib 10 and 50 μM; 6 days
Experimental: as §1
Efficacy of AsiDNA (4.8 μM), veliparib (0, 10 and 50 μM) or both was monitored 6 days after treatment by trypan blue staining. (A) Percentage of living cells relative to non-treated condition (NT). (B) Percentage of dead cells. Dotted lines indicate the calculated cell survivals if additivity between AsiDNA and veliparib.
The inventors monitored cell survival to combined treatment of 3 BC and 2 non-tumor cell lines with different sensitivities to Ola and AsiDNA alone (FIG. 6; Table 1). […] However, the combination remained more efficient or at least equal to the expected additive effect at all the tested doses. […] In contrast, the normal cells were insensitive to both, the combined and the single treatments with AsiDNA and Ola (FIG. 6; Table 1).

CNCc1ccc(-c2[nH]c3cc(F)cc4c3c2CCNC4=O)cc1 [Rucaparib, 8-Fluoro-2-{4-[(methylamino)methyl]phenyl}-1,3,4,5-tetrahydro-6H-azepino[5,4,3-cd]indol-6-one]
efficacy of the combination of PARPi with AsiDNA versus calculated additivity (MDAMB231): supra-additive efficacy | IC20 (MDAMB231): 400 nM | IC50 (MDAMB231): 1800 nM

NC(=O)c1cccc2cn(-c3ccc([C@@H]4CCCNC4)cc3)nc12 [Niraparib]
efficacy of the combination of PARPi with AsiDNA versus calculated additivity (MDAMB231): supra-additive efficacy | IC20 (MDAMB231): 100 nM | IC50 (MDAMB231): 700 nM

Cn1ncnc1[C@H]1c2n[nH]c(=O)c3cc(F)cc(c23)N[C@@H]1c1ccc(F)cc1 [BMN673, (8S,9R)-5-fluoro-8-(4-fluorophenyl)-9-(1-methyl-1H-1,2,4-triazol-5-yl)-8,9-dihydro-2H-pyrido[4,3,2de]phthalazin-3(7H)-one]
efficacy of the combination of PARPi with AsiDNA versus calculated additivity (MDAMB231): supra-additive efficacy | IC20 (MDAMB231): 0.13 nM | IC50 (MDAMB231): 15.4 nM

NC(=O)c1ccc(I)c([N+](=O)[O-])c1 [Iniparib]
efficacy of the combination of PARPi with AsiDNA versus calculated additivity (MDAMB231): supra-additive efficacy | IC20 (MDAMB231): 46000 nM | IC50 (MDAMB231): 49500 nM

C[C@]1(c2nc3c(C(N)=O)cccc3[nH]2)CCCN1 [Veliparib, 2-((fi)-2-methylpyrrolidin-2-yl)-1W-benzimidazole-4-carboxamide]
survival to combined treatment with DT01 versus expected added effect of both single treatments [1]: synergic effect | synergistic effect of the combined treatment with AsiDNA (2 non-tumor cell lines): absent | effect of the combined treatment with AsiDNA (3 BC cell lines): synergistic effect

COC1CCN(C(=O)c2cc(Cc3n[nH]c(=O)c4ccccc34)ccc2F)CC1 [AZD2461]
efficacy of the combination of PARPi with AsiDNA versus calculated additivity (MDAMB231): supra-additive efficacy | IC20 (MDAMB231): 100 nM | IC50 (MDAMB231): 500 nM
